What was measured:
Type in all cases: in vivo, human
multiple sclerosis [1] = assay: Paced Auditory Serial Addition Test (PASAT) cognitive disability assessment; settings: month 12 to month 24
From the text: (§1) Patients also underwent mammograms before and after the study.
Next it was shown that the improvement in PASAT cognitive test scores was sustained when subjects were followed for the entire 24 month period, p=0.02 (FIG. 3).

multiple sclerosis [2] = assay: Brain MRI gadolinium enhancing lesions; settings: at month 12 compared to month 0 baseline, p=0.14
From the text: as §1
Brain MRI is used extensively in MS as a surrogate marker for clinical effects. Brain white matter gadolinium enhancing lesions are a biomarker for relapses.

[3] = Safety and tolerability in randomized, double-blind, placebo-controlled clinical trial (gynecological outcomes, mammograms)
From the text: as §1
Baseline characteristics were similar in both patient groups.

multiple sclerosis [4] = assay: Expanded Disability Status Scale (EDSS)
From the text: as §1
The Expanded Disability Status Scale (EDSS) is a standard composite disability score used in MS trials. Higher scores indicate worse disability. This composite covers a variety of disabilities (including ambulation, vision, cognition, coordination, etc.), but scoring is not linear, and the composite score is understood to be principally an indicator of the level of disability in ambulation.

multiple sclerosis [5] = assay: Timed 25-foot walk test; settings: between-group difference p=0.02
From the text: as §1
Another clinical disability measure with treatment effects was the timed 25-foot walk test. This test measures how many seconds it takes to walk 25 feet, with higher scores indicating worse disability. […] This beneficial effect of estriol treatment on 25 foot walking times is consistent with the beneficial effect of estriol treatment on EDSS scores since the latter is weighted toward being an indicator of ambulation.

[6] = 24-month treatment, Copaxone with estriol or placebo

For “glatiramer acetate [Copaxone® plus placebo]”, the “PASAT scores after 12 months to end of study” value (multiple sclerosis [1]) was “began to show improved PASAT scores”, the “Reduction in number of subjects with brain MRI scans positive for enhancing lesions” value (multiple sclerosis [2]) was 22% and the “Abnormal proliferation in uterine endometrial biopsies” value [3, 6] was “no”. For the same substance, the “Breast - Fibrocystic breast disease on clinical exam” value [3, 6] was 4 subjects, the “Uterine endometrial biopsies (exams)” value [3, 6] was 10 exams and the “Uterine endometrial thickness > 8 mm on ultrasound (subjects)” value [3, 6] was 27 subjects. For the same substance, the Mammograms ([3]; before and after the study) was “No breast”, the “Uterine fibroids on ultrasound” value ([3]; women with MS, 24-month treatment, Copaxone 20 mg/day with oral estriol 8 mg/day or placebo, norethindrone 0.7 mg/day for 14 days every three months) was 8 subjects and the “Change in EDSS scores” value (multiple sclerosis [4]; 24 months (FIG. 4)) was “no change”. For the same substance, the “EDSS scores over 24 months, slope” value (multiple sclerosis [4]; FIG. 4, p=0.06 estriol group, p=0.90 placebo group) was −0.01 and the “Change of walk time in timed 25-foot walk test” value (multiple sclerosis [5]) was “significantly increased”.

From US10369158B2, “Pharmaceutical packaging for estriol therapy” (The Regents of the University of California, priority 2014, dated 2019)
